“And” between values parts separate entries of the source, which are not always exact repeats. Identical values can stand only once. “Also recorded” adds a separate entry of the source.
What was measured:
malaria murine = experiment: Therapeutic activity of amino-acid derivatives of primaquine in the murine malaria model; assay type: in vivo
[1] = target: T1, récepteur à asialoglycoprotéine des hépatocytes (Rattus norvegicus, UniProt P02706+P08290); experiment: Competition with ¹²⁵I HSA gal for binding to cultured hepatocytes at 4°C; settings: for affinité pour le récepteur: cultured rat hepatocytes
T1 construct: le récepteur à galactoses présent à la membrane sinusoïdale des hépatocytes; endogenous in cells; host or cells: primary rat hepatocytes, isolated and cultured 16 h
T1 sequence (P02706 1-284): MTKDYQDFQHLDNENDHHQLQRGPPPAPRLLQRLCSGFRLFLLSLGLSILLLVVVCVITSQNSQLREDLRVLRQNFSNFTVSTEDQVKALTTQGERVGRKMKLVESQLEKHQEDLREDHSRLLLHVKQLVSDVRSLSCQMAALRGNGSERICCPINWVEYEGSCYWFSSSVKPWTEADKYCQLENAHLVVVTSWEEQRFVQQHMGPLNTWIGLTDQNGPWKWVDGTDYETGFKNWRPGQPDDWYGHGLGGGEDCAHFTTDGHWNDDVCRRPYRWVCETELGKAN
T1 sequence (P08290 1-301): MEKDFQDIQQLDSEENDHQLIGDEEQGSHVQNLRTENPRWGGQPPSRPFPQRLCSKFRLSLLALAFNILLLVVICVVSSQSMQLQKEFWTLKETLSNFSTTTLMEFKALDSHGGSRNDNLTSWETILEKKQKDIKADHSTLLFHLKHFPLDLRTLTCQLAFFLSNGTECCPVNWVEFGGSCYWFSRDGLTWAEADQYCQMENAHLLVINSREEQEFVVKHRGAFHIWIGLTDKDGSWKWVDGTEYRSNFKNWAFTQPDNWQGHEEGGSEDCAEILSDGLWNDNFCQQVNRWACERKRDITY
Protocol: D'autres caractéristiques et avantages de la présente invention apparaîtront à la lumière des exemples qui vont suivre. • - La figure 1 : Expériences de compétition entre l'HSA gal marqué à l'iode-125 et différentes concentrations molaires en HSA gal non radioactives (●) ou en composés glycosylés (mono O bi □ triantenne ▲ ) non radioactifs. Les cellules mises en culture depuis 16 h. sont incubées à 4°C pendant 4 h. en présence de 1 ml de milieu contenant 50 ng d'¹²⁵I HSA gal et les différentes concentrations en produits non radioactifs. Après l'incubation, les cellules sont lavées et la radioactivité qui leur est associée, mesurée. Les résultats sont exprimés en pourcentage d'¹²⁵I HSA gal qui reste associé aux cellules en fonction du logarithme de la concentration molaire en compétiteur. • - La figure 2 : Expériences de compétiton entre l'HSA gal marqué à l'iode-125 et différentes concentrations molaires en galactoses d'HSA gal ou de composés glycosylés (mono O bi □ et triantenne ▲ )non radioactifs. Les cellules sont traitées comme décrit dans la figure 1 et les résultats sont exprimés en pourcentage d'[…] HSA gal qui reste associé aux cellules en fonction du logarithme de la concentration molaire en galactose du compétiteur. • - La figure 3 : Distribution tissulaire de la triantenne marquée au tritium. Différentes concentrations en triantenne ³H sont administrées par voie intraveineuse à des souris OF₁. Trois minutes après l'injection, les animaux sont sacrifiés. Le sang et les différentes organes sont prélevés, homogénéisés et la radioactivité qui leur est associée, mesurée. Les résultats sont exprimés en pourcentage de la dose totale injectée et représentent la moyenne + déviation standard de 3 expériences. • - La figure 4 : Distribution tissulaire de la triantenne marquée au tritium. Des souris ont reçu par voie i.v. différentes concentrations de triantenne ³H. Les animaux sont sacrifiés 3 min. après l'injection. Le sang et les différents organes sont prélevés, homogénéisés et la radioactivité qui leur est associée, mesurée. Les résultats sont présentés en pourcentage de la dose injectée par gr. de tissu et représentent la moyenne + déviation standard de 3 expériences. • - La figure 5 : Capture hépatique de la triantenne marquée au tritium. Différentes concentrations en triantenne ³H sont injectées par voie i.v. à des souris OF₁. La radioactivité associée au foie est mesurée 3 min. après l'injection. Les valeurs sont exprimées en ng de galactose associés au foie en fonction des ng de galactoses injectés. • - La figure 6 : Distribution tissulaire de la triantenne marquée au tritium (a.) ou au technetium (b.). Une concentration de 100 µg en galactoses de triantenne radioactive est injectée par voie i.v. à des souris OF₁. Les animaux sont sacrifiés 3 min. après l'injection. Le sang et les différents organes sont prélevés, homogénéisés et la radioactivité qui leur est associée, mesurée. Les résultats sont exprimés en pourcentage de la dose totale administrée (case supérieure) ou en pourcentage de la dose totale injectée par gr. de tissu (case inférieure). Ils représentent la moyenne + déviation standard de 3 expériences.
L'étude in vitro des vecteurs hépatotropes de faible poids moléculaire a été effectuée sur des hépatocytes de rats isolés et mis en culture.
L'affinité relative a été déterminée par une expérience de compétition entre le vecteur et une néoglycoprotéine connue pour sa haute affinité pour les récepteurs à galactoses, soit l'albumine humaine
Afin de déterminer si les hépathocytes fixent spécifiquement les différents dérivés glycosylés (monoantenne = 3 galactoses terminaux; biantenne = 6 galactoses terminaux; triantenne = 9 galactoses terminaux), des expériences de compétition pour le récepteur à asialoglycoprotéines entre l'HSA gal et les différents composés ont été réalisées. […]

[2] = design: species or system souris OF₁; settings: in vivo, iv
Protocol: D'autres caractéristiques et avantages de la présente invention apparaîtront à la lumière des exemples qui vont suivre. • - La figure 1 : Expériences de compétition entre l'HSA gal marqué à l'iode-125 et différentes concentrations molaires en HSA gal non radioactives (●) ou en composés glycosylés (mono O bi □ triantenne ▲ ) non radioactifs. Les cellules mises en culture depuis 16 h. sont incubées à 4°C pendant 4 h. en présence de 1 ml de milieu contenant 50 ng d'¹²⁵I HSA gal et les différentes concentrations en produits non radioactifs. Après l'incubation, les cellules sont lavées et la radioactivité qui leur est associée, mesurée. Les résultats sont exprimés en pourcentage d'¹²⁵I HSA gal qui reste associé aux cellules en fonction du logarithme de la concentration molaire en compétiteur. • - La figure 2 : Expériences de compétiton entre l'HSA gal marqué à l'iode-125 et différentes concentrations molaires en galactoses d'HSA gal ou de composés glycosylés (mono O bi □ et triantenne ▲ )non radioactifs. Les cellules sont traitées comme décrit dans la figure 1 et les résultats sont exprimés en pourcentage d'[…] HSA gal qui reste associé aux cellules en fonction du logarithme de la concentration molaire en galactose du compétiteur. • - La figure 3 : Distribution tissulaire de la triantenne marquée au tritium. […]

récepteur d'Ashwell = target: T2, récepteur d'Ashwell (Rattus norvegicus, UniProt P02706+P08290); experiment: Binding sites and Kd of triantenne on hepatocytes; settings: number of sites
T2 construct: endogenous in cells
T2 sequence (P02706 1-284): T1 sequence (P02706 1-284)
T2 sequence (P08290 1-301): T1 sequence (P08290 1-301)

hépatocytes = experiment: Uptake (internalisation) by hepatocytes at 37°C; assay type: cell-based, rat; settings: short periods (120 min)
Protocol: A 37°C, les récepteurs intériorisent efficacement la triantenne. Par comparaison avec la capture de la macromolécule, ASH gal, les hépatocytes incubés pendant de courtes périodes (120 min), intériorisent jusqu'à 4 fois plus de molécules de triantenne.
Ce fait pourrait s'expliquer par la formation préférentielle de complexes ligand-récepteur à vitesse de dissociation lente, dans le cas de la triantenne.

[3] = Blood disappearance and tissue distribution after i.v. administration (Example 7); assay type: in vivo, souris
Description: In vivo, on a étudié la disparition sanguine ainsi que la distribution tissulaire de la triantenne suite à son administration intra-veineuse à des souris.

[4] = among amino-acid derivatives of primaquine
[5] = result in words, hepatocytes, 4°C

## COc1cc(NC(C)CCCNC(=O)[C@@H](N)CCC(=O)O)c2ncccc2c1 (stereo partly drawn) [L-glutamyl-Pq]
Malaria murine; [4]
  index thérapeutique: meilleur index thérapeutique

## Cbz-Asp bis(-6-amino Hex-Tris tri Gal) [Biantenne]
[1]; result in words
  affinité pour le récepteur: affinité importante
[1]; [5]
  compétition avec l'HSA gal iodiné pour le récepteur à asialoglycoprotéine: induit une diminution de la radioactivité associée aux cellules; also recorded: entre effectivement en compétition

## Cbz-Asp-Asp-tri(-6-amino Hex-Tris tri Gal) [Triantenne]
[1]; ratio triantenne / biantenne
  affinité par rapport à celle de la biantenne: ~100 fois and 60 fois
[1]; result in words
  affinité exprimée en concentration molaire en galactoses, par rapport à l'HSA gal: du même ordre de grandeur
  affinité pour le récepteur: la plus haute affinité pour le récepteur; also recorded: affinité importante
[1]; [5]
  compétition avec l'HSA gal iodiné pour le récepteur à asialoglycoprotéine: induit une diminution de la radioactivité associée aux cellules
[2]
  matériel radioactif associé au sang ou au plasma: ≤ 10 % de la dose initiale administrée
  radioactivité associée aux autres organes (rate, coeur, poumons, muscles, estomac, duodenum, colon, rectum): < 5%
récepteur d'Ashwell
  sites de haute affinité: 56370 sites
  sites de plus faible affinité: 490500 sites
hépatocytes
  molécules intériorisées par rapport à l'ASH gal: ≤ 4 fois
[3]; 5 min after injection
  quantité accumulée par les hépatocytes: > 40 % de la quantité administrée
  quantité interagissant avec les autres organes: < 2%
[3]; after 10 min
  rapport des concentrations spécifiques du foie et des reins: 10
[3]; comparable number of molecules, after 5 min
  molécules captées par le foie par rapport à l'ASH gal: ~2 fois
[3]; result in words
  disparition sanguine: éliminée très rapidement de la circulation sanguine
[3]; start value
  rapport des concentrations spécifiques du foie et des reins: 1.5

## Cbz-Asp-(6-amino Hex-Tris tri Gal) [Monoantenne]
[1]; molar concentration in galactoses of the competitor inhibiting 50 % of ¹²⁵I HSA gal binding, hepatocytes, 4°C, 4 h
  B=Ic50 (molaire en gal.): non déterminable
[1]; molar concentration of competitor inhibiting 50 % of ¹²⁵I HSA gal binding, hepatocytes, 4°C, 4 h
  A=Ic 50 (molaire): non déterminable
[1]; result in words
  affinité pour le récepteur: ne présentent d'affinité significative
[1]; [5]
  compétition avec l'HSA gal iodiné pour le récepteur à asialoglycoprotéine: n'entre pas en compétition; also recorded: se fixe aspécifiquement sur les cellules

## COc1cc(NC(C)CCCNC(=O)C(N)CCCCN)c2ncccc2c1 [L-lysyl-Pq]
Malaria murine; [4]
  activité: meilleure activité
Malaria murine; compared with primaquine
  toxicité: toxicité plus élevée que celle de la primaquine

— patent publication EP0363275A1, “Low molecular weight vectors specific for sugar receptors, their conjugates and processes for their preparation” (IRE-CELLTARG S.A., priority 1988, dated 1990)
